Species: Rattus norvegicus
Experiment: Open TG-GATES - Regimen: Daily Repeat
Assay type: toxicity, organism-based, Sprague-Dawley
Set-up: regimen Daily Repeat, gender Male, age 6 weeks
Conditions: in vivo, po, route gavage; for TG / TP / gamma-GTP / ALP / ALT / CRE / DBIL / GLC / IP / K / LDH / Na / PL / RALB / TBIL / TC / BUN: tissue Plasma
[1] = 60 mg/kg, […], dose level Low, time 28 day
[2] = 200 mg/kg, 72 h, dose level Middle, time 3 day
[3] = 200 mg/kg, 72 h, tissue Blood, dose level Middle, time 3 day
[4] = 200 mg/kg, […], dose level Middle, time 7 day
[5] = 200 mg/kg, […], dose level Middle, time 14 day
[6] = 200 mg/kg, […], dose level Middle, time 28 day
[7] = 200 mg/kg, […], tissue Blood, dose level Middle, time 7 day
[8] = 200 mg/kg, […], tissue Blood, dose level Middle, time 14 day
[9] = 200 mg/kg, […], tissue Blood, dose level Middle, time 28 day

`CCN(CC)C(=S)SSC(=S)N(CC)CC` was tested, and the TG [1] was 67.8 mg/dL, the TP [1] was 5.9 g/dL and the gamma-GTP [1] was 1.8 IU/L. The TERMINAL_BW [2] was 218.6 g, the APTT [3] was 22.4 s and the Bas [3] was 0%. The Eos [3] was 1%, the Fbg [3] was 344.8 mg/dL and the Hb [3] was 12.4 g/dL. It also gave a Ht [3] of 37.6%, an MCH [3] of 19.7 pg and an MCHC [3] of 32.9%. The MCV [3] was 60 fL, the Mono [3] was 2.2% and the PT [3] was 15.7 s. For the same compound, the Plat [3] was 109.9 x10_4/uL, the RBC [3] was 627.2 x10_4/ul and the Ret [3] was 4.6%. For the same compound, the WBC [3] was 80.4 x10_2/uL, the ALP [2] was 878 IU/L and the ALT [2] was 45 IU/L. It also gave a CRE [2] of 0.2 mg/dL, a DBIL [2] of 0.008 mg/dL and a GLC [2] of 170.6 mg/dL. For the same compound, the IP [2] was 7 mg/dL, the K [2] was 4.1 meq/L and the LDH [2] was 195.4 IU/L. For the same compound, the Na [2] was 144 meq/L, the PL [2] was 189.4 mg/dL and the RALB [2] was 3.1 g/dL. For the same compound, the TBIL [2] was 0.014 mg/dL, the TC [2] was 117.8 mg/dL and the TG [2] was 54.8 mg/dL. The TP [2] was 5.6 g/dL, the gamma-GTP [2] was 1.2 IU/L and the TERMINAL_BW [4] was 250.3 g. It also gave a TERMINAL_BW [5] of 290.7 g, a TERMINAL_BW [6] of 357.8 g and an APTT [7] of 20.7 s. The Bas [7] was 0%, the Eos [7] was 1% and the Fbg [7] was 349.8 mg/dL. For the same compound, the Hb [7] was 12.3 g/dL, the Ht [7] was 37.8% and the MCH [7] was 20.2 pg. For the same compound, the MCHC [7] was 32.7%, the MCV [7] was 61.8 fL and the Mono [7] was 2.4%. The PT [7] was 16.3 s, the Plat [7] was 130.6 x10_4/uL and the RBC [7] was 611 x10_4/ul. The Ret [7] was 7.1%, the WBC [7] was 101.3 x10_2/uL and the APTT [8] was 23.3 s. The Bas [8] was 0%, the Eos [8] was 1% and the Fbg [8] was 348.6 mg/dL. For the same compound, the Hb [8] was 13.6 g/dL, the Ht [8] was 39.4% and the MCH [8] was 20 pg. The MCHC [8] was 34.5%, the MCV [8] was 58 fL and the Mono [8] was 2.4%. The PT [8] was 16.1 s, the RBC [8] was 679.6 x10_4/ul and the Ret [8] was 5.2%. It also gave a WBC [8] of 99.9 x10_2/uL, an APTT [9] of 24.5 s and a Bas [9] of 0%. For the same compound, the Eos [9] was 1.4%, the Fbg [9] was 385.6 mg/dL and the Hb [9] was 14.2 g/dL. The Ht [9] was 40.9%, the MCH [9] was 19 pg and the MCHC [9] was 34.8%. For the same compound, the MCV [9] was 54.7 fL, the Mono [9] was 2% and the Neu [9] was 16%. The PT [9] was 16.3 s, the Plat [9] was 100.5 x10_4/uL and the RBC [9] was 748.8 x10_4/ul. The Ret [9] was 4%, the WBC [9] was 118.2 x10_2/uL and the ALP [4] was 989.4 IU/L. The ALT [4] was 46 IU/L, the BUN [4] was 18.2 mg/dL and the CRE [4] was 0.2 mg/dL. The DBIL [4] was 0 mg/dL, the GLC [4] was 173.2 mg/dL and the IP [4] was 6.6 mg/dL. It also gave a K [4] of 4.3 meq/L, an LDH [4] of 195 IU/L and a Na [4] of 143 meq/L. It also gave a PL [4] of 171 mg/dL, an RALB [4] of 3.1 g/dL and a TBIL [4] of 0.006 mg/dL. It also gave a TG [4] of 38.2 mg/dL, a TP [4] of 5.8 g/dL and a gamma-GTP [4] of 1.6 IU/L. It also gave an ALP [5] of 989.6 IU/L, an ALT [5] of 38.8 IU/L and a BUN [5] of 22.2 mg/dL. The CRE [5] was 0.2 mg/dL, the DBIL [5] was 0 mg/dL and the GLC [5] was 172.6 mg/dL. It also gave an IP [5] of 6.4 mg/dL, a K [5] of 4.2 meq/L and an LDH [5] of 126.6 IU/L. For the same compound, the Na [5] was 142 meq/L, the PL [5] was 181 mg/dL and the RALB [5] was 3.2 g/dL. It also gave a TBIL [5] of 0.014 mg/dL, a TC [5] of 104 mg/dL and a TG [5] of 41.2 mg/dL. For the same compound, the TP [5] was 6 g/dL, the gamma-GTP [5] was 3 IU/L and the ALP [6] was 809.6 IU/L. The ALT [6] was 37.2 IU/L, the BUN [6] was 21.2 mg/dL and the CRE [6] was 0.2 mg/dL. The DBIL [6] was 0 mg/dL, the GLC [6] was 165.8 mg/dL and the IP [6] was 6 mg/dL. For the same compound, the K [6] was 4 meq/L, the LDH [6] was 132 IU/L and the Na [6] was 142 meq/L. It also gave a PL [6] of 188 mg/dL, an RALB [6] of 3.3 g/dL and a TBIL [6] of 0.026 mg/dL. For the same compound, the TC [6] was 118 mg/dL, the TG [6] was 38 mg/dL and the TP [6] was 6.4 g/dL. The gamma-GTP [6] was 2.4 IU/L.
